Several values for one entry are separate records, joined by “and”; a condition that tells them apart may be missing. Equal entries are not always repeated. Entries after “also recorded” stand apart in the source; their conditions may differ.
Assays:
Format in all cases: in vivo, mouse
[1] = Intravital two-photon imaging of glomerular filtration and tubular transport in the kidney; conditions: for Tmax: individual renal tubule; for Half-life: kidney
Description: (§1) In vivo recordings were acquired using a custom modified inverted LSM MP7 (Zeiss, Jena, Germany) provided with a two-photon Chameleon Ultra II laser with a tuning range from 680 to 1080 nm and a maximum power of approximately 3.5 W at 800 nm. […] Images were acquired with an LD C-Apochromat 40×/1.1 water immersion objective. The temperature of the specimen was controlled with a matt coated incubation chamber (Solent Scientific, Segensworth, UK).
(§2) For in vivo imaging, 6- to 10-week-old male mice were initially anaesthetized with an intraperitoneal injection of ketamine (64 mg/kg), xylazine (7.2 mg/kg), acepromazine (1.7 mg/kg) and buprenorphine (0.08 mg/kg). […] For liver preparation, the abdominal skin was removed and a small midline incision below the sternum was made with surgical scissors. Subsequently, the falciform ligament was cautiously cut in order to dissociate the liver. […] The cover slip was put in a custom-made image platform from Plexiglas and fit into the stage of the microscope. The exposed liver was then covered with saline-soaked gauze. The temperature control of the incubation chamber was set at 36 °C. The quality of mouse preparation was verified by checking the breathing rate of the mouse and by the regular blood flow in the observed region. For the preparation of the kidney, the mouse was placed on its right side and a small incision made in the left flank region. The convex side of the left kidney was exposed via gentle pressure on the abdominal wall. In order to avoid dryness, the exposed kidney was covered with saline-moistened gauze during imaging. For intestine imaging, an incision was made on the right side of the abdominal wall. The intestine was gently pulled out using a moistened cotton-tipped applicator. To reduce peristalsis, the intestine was incubated in a 1% atropine sulfate bath for 10 min. Subsequently, the intestine was placed in a glass bottom microwell dishes (MatTek corporation, MA, USA) containing 0.5% atropine sulfate bath during the entire recording period. In case of recordings exceeding 1 h, the mice were kept on maintenance anesthesia via a respiratory mask using an evaporator (IAS3801, FMI GmbH, Seeheim-Jugenheim, Germany) with 1–2% isoflurane and a subcutaneous injection of 0.5 ml saline was given.
(§3) Fluorescent markers or fluorescently labeled antibodies were injected via the tail vein before surgery or during recording via lateral tail vein catheters (SAI-infusion, IL, USA). […] All injected antibodies including anti-mouse CD11b, anti-mouse F4/80, anti-mouse NK1.1 and anti-mouse Ly6G (eBioscience, CA, USA) were phycoerythrin conjugated and administered in 100 µl PBS.
(§4) Recorded videos were quantified with the Zen software (Zeiss). Fluorescence intensity was quantified in defined regions of interest.
(§5) Pharmacokinetic analyses were performed with the MoBi® Toolbox for MATLAB (version 6.0.3; Bayer Technology Services GmbH, Leverkusen, Germany). PK-Sim® and MoBi® are freely available for non-commercial academic use.

[2] = Intravital two-photon imaging of hepatic transport after tail vein injection; conditions: for Half-life: liver
Description: as §1, §2, §3, §4, §5

[3] = Intravital two-photon imaging of intestinal transport (duodenum, capillaries to lacteal)
Description: as §1
as §2, with “Subsequently, the intestine was placed in a glass bottom microwell dishes (MatTek corporation, MA, USA) containing 0.5% atropine sulfate bath during the entire recording period. In case of recordings exceeding 1 h, the mice were kept on maintenance anesthesia via a respiratory mask using an evaporator (IAS3801, FMI GmbH, Seeheim-Jugenheim, Germany) with 1–2% isoflurane and a subcutaneous injection of 0.5 ml saline was given.” left out
Recorded videos were quantified with the Zen software (Zeiss). Fluorescence intensity was quantified in defined regions of interest. […]

For `CC(CCC(=O)NC(CCCCNC(=S)Nc1ccc(-c2c3ccc(=O)cc-3oc3cc(O)ccc23)c(C(=O)O)c1)C(=O)O)C1CCC2C3C(O)CC4CC(O)CCC4(C)C3CC(O)C12C` (stereo not shown) [CLF, cholyl-lysyl-fluorescein], which Tmax ([1]; Fig. 7, Tubule: 1) is on record?
The Tmax was 0.38 min.

What about the Tmax ([1]; Fig. 7, Tubule: 2) of the same compound?
Its Tmax is 0.38 min.

And the Tmax ([1]; Fig. 7, Tubule: 3)?
The Tmax was 0.40 min.

And the Tmax ([1]; Fig. 7, Tubule: 4)?
Its Tmax is 0.75 min.

And the Tmax ([1]; Fig. 7, Tubule: 5)?
Its Tmax is 0.45 min.

What about the Tmax ([1]; Fig. 7, Tubule: 6) of the same compound?
Its Tmax is 0.35 min.

What about the Tmax ([1]; Fig. 7, Tubule: 7) of the same compound?
Its Tmax is 3.22 min.

And the Tmax ([1]; Fig. 7, Tubule: 8)?
Its Tmax is 2.82 min.

What about the Tmax ([1]; Fig. 7, Tubule: 9) of the same compound?
Its Tmax is 3.34 min.

And the Tmax ([1]; Fig. 7, Tubule: 10)?
Its Tmax is 3.34 min.

And the Tmax ([1]; Fig. 7, Tubule: 11)?
Its Tmax is 0.40 min.

What about the Tmax ([1]; Fig. 7, Tubule: 12) of the same compound?
The Tmax was 0.50 min.

What about the Tmax ([1]; Fig. 7, Tubule: 13) of the same compound?
Its Tmax is 3.24 min.

What about the Tmax ([1]; Fig. 7, Tubule: 14) of the same compound?
The Tmax was 0.37 min.

What about the Tmax ([1]; Fig. 7, Tubule: 15) of the same compound?
Its Tmax is 3.19 min.

And the Half-life ([1]; Bowman's space)?
The Half-life was 2.19 min.

What about the Half-life ([1]; glomerular capillaries) of the same compound?
Its Half-life is 2.3 min and 2.33 min.

And the Half-life ([1]; proximal tubule)?
The Half-life was 4.88 min.

And the “Time to maximum (T max) fluorescence, distal tubules” value ([1]; tubular lumina, range over imaged tubules)?
The value was 2.82 to 3.34 min.

And the “Time to maximum homogenous signal in the cytosol of the hepatocytes” value ([2]; after intravenous injection of 2.5 mg/kg)?
Its value is about 5 min.

And the “Enrichment in the LSEC/space of Dissé” value ([2]; after tail vein injection)?
Its value is “transient enrichment”.

And the Half-life ([2]; LSEC/Dissé space)?
Its Half-life is 13.46 min.

And the Half-life ([2]; hepatocytes, nd^a = not detectable due to transportation in vesicles)?
Its Half-life is 34.17 min.

And the Half-life ([2]; sinusoids, fluorescence intensity after tail vein injection (CLF 2.5 mg/kg, dextran 30 mg/kg))?
Its Half-life is 1.9 min and 1.89 min.

What about the “Appearance in the liver sinusoids after tail vein injection” value ([2]; time after tail vein injection) of the same compound?
Its value is “approximately 15 s”.

What about the “Transfer from intestinal blood capillaries into lymphatic vessels (lacteals), blood-lacteal barrier” value ([3]; after intravenous injection) of the same compound?
Its value is “found in traces in the lymphatic vessels; also recorded: virtually impermeable”.

What about the “Transport from intestinal capillaries into intestinal crypt cells and secretion into the intestinal lumen” value ([3]; after intravenous injection) of the same compound?
The value was “No transport”.

What about the Half-life ([3]; intestine, blood vessels) of the same compound?
The Half-life was 1.45 min.

From PMC5316407, “In vivo imaging of systemic transport and elimination of xenobiotics and endogenous molecules in mice” (Archives of Toxicology, 2016)
